Consider 1 compound from patent publication US7892755B2, “Screening method” (Takeda Pharmaceutical Company Limited, priority 2004, dated 2011).

The target in this assay is T1, mouse GPR35 (Mus musculus, UniProt Q9ES90, D300Y/S286F).
T1 construct: the digestion product was inserted into plasmid vector pAKKO-111H; expressed in transfected cells; host or cells: CHO-K1 cells
The assay is described as follows: Reactivity on FLIPR, CHO-K1 cells transfected with mouse GPR35 expression vector. Type of assay: cell-based. The procedure: The CHO-K1 cell line (purchased from ATCC) was incubated in HAM F-12 medium (Invitrogen) supplemented with 10% fetal calf serum, unless otherwise indicated. On the day before transfection, the cells were inoculated at 4.5×10^5/10 cm^2 and incubated at 37° C. for 15 hours or more in a CO2 incubator adjusted to 5% CO2 concentration. Using Lipofectamine reagent (Invitrogen), transfection was performed according to modifications of the procedure attached to the reagent. When a 6-well plate was used as the incubator, the transfection was performed as follows. Two tubes each having a 1.5 ml volume were prepared and 100 μl each of Opti-MEM medium (Invitrogen) was dispensed in each tube. […] The cells obtained were counted and diluted to 5×10^4 cells per 100 μl of the medium. […]
To assay the changes in intracellular calcium levels on FLIPR, the following pretreatment was made. First, an assay buffer was prepared to add fluorescence dye Fluo-3AM (DOJIN) to the cells, or to wash the cells immediately before the FLIPR assay. […] After mixing them, the mixture was added to 10.6 ml of an assay buffer supplemented with 105 μl of fetal calf serum to give a fluorescence dye solution. […]

T1 sequence (Q9ES90 whole entry S286F/D300Y): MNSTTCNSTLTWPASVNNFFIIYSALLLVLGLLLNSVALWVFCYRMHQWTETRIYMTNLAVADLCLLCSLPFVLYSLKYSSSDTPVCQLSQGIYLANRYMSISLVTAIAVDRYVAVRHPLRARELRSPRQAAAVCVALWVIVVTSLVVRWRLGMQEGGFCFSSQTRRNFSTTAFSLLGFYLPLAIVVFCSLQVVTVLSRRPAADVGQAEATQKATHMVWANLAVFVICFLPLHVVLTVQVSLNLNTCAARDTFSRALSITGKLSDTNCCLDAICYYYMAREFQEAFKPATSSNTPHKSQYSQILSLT

Consider `O=C1N=c2cc([N+](=O)[O-])c([N+](=O)[O-])cc2=NC1=O` [DNQX, 6,7-dinitroquinoxaline-2,3-dione], for which the “reactivity of mouse GPR35 (FLIPR)” value is listed as “responsive”.
